Several values for one entry are separate records, joined by “and”; a condition that tells them apart may be missing. Equal values may be shown once. Entries after “also recorded” stand apart in the source; their conditions may differ.
Columns and labels:
[1] = system: hydrocodone induced GI inhibition; experiment: GI transit assay (charcoal meal): reversal of hydrocodone induced GI inhibition
[2] = Methadone maintenance subjects: serum 6β-naltrexol pharmacokinetics; format: in vivo, human; conditions: 1.0 mg dose
Protocol: Using an assay with a lower limit of quantification of 0.5 ng/mL, 6β-naltrexol was detectable in plasma for only six hours. Determination of terminal half-life of elimination was not feasible because of lack of sufficient assay sensitivity.

[3] = system: gastrointestinal activity in methadone-dependent subjects; experiment: Methadone maintenance subjects: laxation and oral-cecal transit time; format: in vivo, human
Description: The aims of this first-in-human study were to examine the pharmacokinetics of 6β-naltrexol to measure two key characteristics of 6β-naltrexol in highly opioid dependent persons: unwanted aspects of opioid antagonism such as withdrawal, and preferential suppression of opioid effects on the gastrointestinal tract compared to the central nervous system. Eight subjects were enrolled. Of these subjects, four were ineligible for dosing with 6β-naltrexol: three due to small bowel bacterial overgrowth and one due to difficulty with IV catheter insertion. […] The remaining two subjects tolerated the 1.0 mg dose and reported a willingness to take higher doses of 6β-naltrexol.
Laxation was experienced for one subject (25%; 101 minutes post dose) at the 0.05 mg dose, three subjects (75%; 2, 17, and 40 minutes post dose) at the 0.5 mg dose, and two subjects (67%; both at 5 minutes post dose) at the 1.0 mg dose. […] In the two subjects who did undergo oral-cecal transit time testing (lactulose/H2 test), 6β-naltrexol accelerated GI transit time at doses of 0.25 mg and above. A quantitative evaluation of this test was not possible because of insufficient number of subjects (data from only two subjects were evaluable, while a third subject had elevated base-line H2 levels, and a fourth subject was not tested), but a detectable reversal of GI slowing at 0.25 mf 6β-naltrexol is consistent with the finding that regulator bowel movement occurred with two subjects at 0.5 mg 6β-naltrexol.

[4] = system: morphine-induced pupil constriction; experiment: Pupillometry with 10 mg morphine i.v.; format: in vivo, human; conditions: doses up to 20 mg i.v.
[5] = Tolerability of i.v. 6β-naltrexol infusion in opioid-naïve volunteers; conditions: i.v. infusion over 30 minutes, up to 20 mg
[6] = system: morphine-induced slowing of gastrointestinal transit; experiment: Oral-cecal transit time (lactulose-hydrogen breath test) with 10 mg morphine i.v.; format: in vivo, human
[7] = system: morphine-induced antinociception; conditions: cited from earlier work
[8] = system: hydrocodone-induced antinociception; experiment: 55° C. warm-water tail-flick assay: inhibition of hydrocodone-induced antinociception; format: in vivo, mice; conditions: for time of peak effect of antinociception inhibition: hydrocodone 3.2 mg/kg i.v.
[9] = system: hydrocodone effects: GI transit (peripheral) vs. antinociception (central); experiment: Peripheral vs. central potency, (antinociception ID50)/(GI transit ID50); format: in vivo, mice
[10] = system: morphine-induced analgesia; experiment: Cold pressor test with 10 mg morphine i.v.; format: in vivo, human; conditions: doses up to 20 mg i.v.
[11] = system: stereotypic circling induced by morphine; conditions: non-dependent and chronically dependent mice; cited from earlier work
[12] = 6β-naltrexol plasma pharmacokinetics after i.v. infusion, opioid-naïve volunteers (eIND); conditions: humans
[13] = Concentrations in plasma and brain tissue after i.p. injection (LC/MS/MS); conditions: for plasma concentration as metabolite after the naltrexone dose: after naltrexone 1 mg/kg i.p.
[14] = Oral bioavailability of the neutral antagonists
[15] = Neutral antagonist comparison (Table 3)
[16] = antagonist p.o. co-administered with hydrocodone A90 32 mg/kg p.o.
[17] = 1 mg/kg i.p., 60 min after injection
[18] = 10 mg/kg i.p., 10 min after injection
[19] = 10 mg/kg i.p., 60 min after injection

Substance: 6β-naltrexol
- GI Transit ID50 ([1]; antagonist i.v., hydrocodone A90 3.2 mg/kg i.v.): 0.0443 mg/kg
- GI Transit ID50 [1, 16]: 1.290 mg/kg
- GI Transit ID50 ([1]; antagonist p.o., hydrocodone A90 3.2 mg/kg i.v.): 0.410 mg/kg
- induction of diarrhea ([1]; on administration of the antagonist): absent
- AUC ([2]; Subject 1): 7.8 ng·h/mL
- CL ([2]; Subject 1): 128 L/h
- t1/2 ([2]; Subject 1): 2.2 h
- AUC ([2]; Subject 2): 7.6 ng·h/mL
- CL ([2]; Subject 2): 131 L/h
- t1/2 ([2]; Subject 2): 2.43 h
- Cmax ([2]; Subject 2, serum): 3.2 ng/mL
- subjects experiencing laxation ([3]; 0.05 mg dose): 25%
- time of laxation post dose ([3]; 0.05 mg dose): 101 min
- subjects experiencing laxation ([3]; 0.5 mg dose): 75%
- effect on bowel movement ([3]; 0.5 mg i.v.): near normal bowel movement; also recorded: immediate bowel movement
- subjects experiencing laxation ([3]; 1.0 mg dose): 67%
- time of laxation post dose ([3]; 1.0 mg dose, both subjects): 5 min
- Lowest dose producing laxation ([3]; individual patients): 0.5 mg (2×) and 0.05 mg
- dose sufficient initially to cause laxation ([3]; iv, methadone maintenance patients): 0.5 mg
- doses accelerating GI transit time (lactulose/H2 test) ([3]; two evaluable subjects): ≥ 0.25 mg
- effect on morphine-induced pupil constriction [4]: no detectable effect
- tolerability [5]: well tolerated
- effect of 20 mg on morphine's GI effects ([6]; 20 mg i.v., 10 mg morphine i.v.): completely blocking; also recorded: completely suppressing
- peripheral over central potency ([6]; humans): at least tenfold
- effect on morphine-induced antinociception ([7]; administered intraperitoneally, Wang et al. 2001): reverses
- potency for reversing morphine-induced antinociception, less potent than naltrexone ([7]; published observation, depending on route of administration): 5-10 fold
- Antinociception ID50 ([8]; antagonist i.v. pretreatment, hydrocodone A90 3.2 mg/kg i.v.): 0.222 mg/kg
- Antinociception ID50 [8, 16]: 12.3 mg/kg
- Antinociception ID50 ([8]; antagonist p.o. pretreatment, hydrocodone A90 3.2 mg/kg i.v.): 2.35 mg/kg
- time of peak effect of antinociception inhibition ([8]; i.v. administration): 90 min
- time of peak effect of antinociception inhibition ([8]; p.o. administration): 120 min
- Fold-Shift (antinociception ID50)/(GI transit ID50) ([9]; antagonist p.o./hydrocodone p.o. co-administered): 9.53 and 9.5
- selectivity in blocking peripheral over central opioid effects ([9]; mice, oral administration, earlier experiments): approximately tenfold
- therapeutic window (peripheral side effects reduced without inhibition of analgesia) ([9]; mouse, orally co-administered with hydrocodone): 0.1 to 3.0 mg/kg
- fold more potent peripherally than centrally ([9]; over all administration routes): 5-10 fold
- effect on morphine-induced analgesia [10]: no detectable effect
- effect on stereotypic circling induced by morphine [11]: prevents
- blood half-life relative to most commonly used oral opioid analgesic formulations [12]: 3-4 times
- mean terminal plasma elimination half-life ([12]; i.v. infusion 3 mg or 10 mg): 11.1 ± 2.4 h
- Brain concentration ([13]; 1 mg/kg i.p., 10 min after injection): 7 ± 6 ng/g
- Plasma concentration ([13]; 1 mg/kg i.p., 10 min after injection, mean±SD, n=3): 61 ± 7 ng/mL
- Brain concentration [13, 17]: 9 ± 1 ng/g
- Plasma concentration [13, 17]: 24 ± 28 ng/mL
- Brain concentration [13, 18]: 89 ± 6 ng/g
- Plasma concentration [13, 18]: 857 ± 122 ng/mL
- Brain concentration [13, 19]: 74 ± 14 ng/g
- Plasma concentration [13, 19]: 75 ± 25 ng/mL
- change of levels at 60 min from those measured at 10 min ([13]; after i.p. injection): had not changed
- plasma concentration as metabolite after the naltrexone dose ([13]; 10 min): 1.9 ng/mL
- plasma concentration as metabolite after the naltrexone dose ([13]; 60 min): 1.7 ng/mL
- detectability as metabolite after the naltrexone dose ([13]; plasma and brain tissue, method sensitive to approximately 1 ng/mL (g)): detectable in plasma but not brain tissue
- oral bioavailability (into the circulation), estimated ([14]; humans, estimated): approximately 25%
- bioavailability ([14]; rodent, previously determined data not shown): 14%
- oral bioavailability ([14]; species not stated): ~20%
- Half-life of active metabolites [15]: 12 h
- Bioavailability for CNS (central) effects ([15]; given orally): ~25%
- Strength (as compared to 6β-naltrexol) ([15]; given orally, opioid agonist naïve or non-dependent subject): 1
